Reference: patent US6013648A, “CB2 Receptor agonist compounds” (Sanofi, priority 1995, dated 2000)

Key:
human B cells = experiment: DNA synthesis rate (thymidine absorption) of human B cells co-stimulated with anti-Ig antibodies; assay type: cell-based; details: for increase in the thymidine absorption (DNA synthesis rate): nanomolar concentrations, human B cells co-stimulated with anti-Ig antibodies
Source text: It has been shown that, at nanomolar concentrations, compounds according to the invention, such as 3-(morpholin-4-ylmethyl)-5-methyl-6-(naphth-1-ylcarbonyl)-2,3-dihydropyrrolo[1,2,3-de]-1,4-benzoxazine methanesulfonate and 1-(2-(morpholin-4-yl)ethyl)-2-methyl-3-(naphth-1-ylcarbonyl)-7-methoxyindole, are capable of substantially increasing the DNA synthesis rate of human B cells co-stimulated with anti-Ig antibodies (increase of about 40% in the thymidine absorption).

[1] = target: T1, central human receptors (CB1) (Homo sapiens, UniProt P21554); experiment: affinity binding test, membranes from cell lines expressing CB1
T1 construct: expressed in transfected cells; host or cells: Chinese hamster ovary (CHO) cells
T1 sequence (P21554 whole entry): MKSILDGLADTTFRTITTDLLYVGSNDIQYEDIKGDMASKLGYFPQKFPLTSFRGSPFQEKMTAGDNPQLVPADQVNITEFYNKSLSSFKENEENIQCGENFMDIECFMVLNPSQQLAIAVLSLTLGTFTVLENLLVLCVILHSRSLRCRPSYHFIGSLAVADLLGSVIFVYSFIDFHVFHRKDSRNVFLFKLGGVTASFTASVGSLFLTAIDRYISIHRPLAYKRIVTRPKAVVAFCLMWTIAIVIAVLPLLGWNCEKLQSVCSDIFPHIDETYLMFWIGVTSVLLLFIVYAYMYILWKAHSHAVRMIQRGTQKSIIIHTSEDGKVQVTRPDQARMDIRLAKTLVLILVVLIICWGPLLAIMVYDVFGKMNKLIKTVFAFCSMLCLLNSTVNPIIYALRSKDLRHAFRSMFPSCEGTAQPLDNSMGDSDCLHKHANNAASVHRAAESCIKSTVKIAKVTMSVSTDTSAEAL
Method: (§1) Affinity binding tests were carried out under the experimental conditions described by Devane et al. (Molecular Pharmacology (1988) 34, 605-613) with membranes derived from cell lines in which the CB1 and CB2 receptors were expressed (Munro et al., Nature (1993) 365, 561-565).

[2] = target: T2, peripheral human cannabinoid receptors (CB2) (Homo sapiens, UniProt P34972); experiment: affinity binding test, membranes from cell lines expressing CB2; details: in vitro binding; read-out: affinity for the CB2 receptor
T2 construct: expressed in transfected cells; host or cells: cell line expressing CB2 (probably CHO; the print may tie CHO to CB1 only)
T2 sequence (P34972 whole entry): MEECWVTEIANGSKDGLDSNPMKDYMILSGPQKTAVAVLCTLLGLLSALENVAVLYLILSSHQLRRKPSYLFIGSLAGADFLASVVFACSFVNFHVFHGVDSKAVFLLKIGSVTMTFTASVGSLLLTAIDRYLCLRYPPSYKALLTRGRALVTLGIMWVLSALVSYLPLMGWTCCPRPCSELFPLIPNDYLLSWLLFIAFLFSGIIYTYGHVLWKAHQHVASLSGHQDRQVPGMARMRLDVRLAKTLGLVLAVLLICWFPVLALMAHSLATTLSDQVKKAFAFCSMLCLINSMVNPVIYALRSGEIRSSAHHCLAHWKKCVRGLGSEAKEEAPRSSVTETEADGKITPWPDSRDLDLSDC
Method: as §1

[3] = target: T3, human CB2 cannabinoid receptors (Homo sapiens, UniProt P34972); experiment: forskolin-stimulated cAMP production / adenylate cyclase inhibition, CB2; assay type: cell-based
T3 construct: expressed in transfected cells; host or cells: probably CHO cells (the print may tie CHO to CB1 only)
T3 sequence (P34972 whole entry): as above
Method: Furthermore, the compounds according to the invention behave in vitro as specific agonists for the human CB2 cannabinoid receptors relative to the CB1 receptors expressed in CHO cells. In fact, by binding specifically to the CB2 receptors, they reduce forskolin-stimulated cAMP production by inhibiting the adenylate cyclase. The tests were carried out under the experimental conditions described by Matsuda et al. (Nature, 1990, 346, 561-564).
By way of example, the following adenylate cyclase 50% inhibitory concentrations, IC50, were calculated for 1-(2-(morpholin-4-yl)ethyl)-2-methyl-3-(4-bromonaphth-1-ylcarbonyl)-7-methoxyindole: […]

[4] = target: T4, CB1 receptors expressed in CHO cells (Homo sapiens, UniProt P21554); experiment: forskolin-stimulated cAMP production / adenylate cyclase inhibition, CB1; assay type: cell-based
T4 construct: expressed in transfected cells; host or cells: CHO cells
T4 sequence (P21554 whole entry): as the sequence (P21554 whole entry) above
Method: The tests were carried out under the experimental conditions described by Matsuda et al. (Nature, 1990, 346, 561-564).

For `CS(=O)(=O)O.Cc1c(C(=O)c2cccc3ccccc23)c2cccc3c2n1C(CN1CCOCC1)CO3` (single isomer, unassigned) [3-(morpholin-4-ylmethyl)-5-methyl-6-(naphth-1-ylcarbonyl)-2,3-dihydropyrrolo[1,2,3-de]-1,4-benzoxazine methanesulfonate], the “increase in the thymidine absorption (DNA synthesis rate)” value (human B cells) was “about 40%”.
For `COc1cccc2c(C(=O)c3cccc4ccccc34)c(C)n(CCN3CCOCC3)c12` [Compound 6, 1-(2-(morpholin-4-yl)ethyl)-2-methyl-3-(naphth-1-ylcarbonyl)-7-methoxyindole], the “increase in the thymidine absorption (DNA synthesis rate)” value (human B cells) was “about 40%”.
`COc1cccc2c(C(=O)c3ccc(Br)c4ccccc34)c(C)n(CCN3CCOCC3)c12` [Compound 22, 1-(2-(Morpholin-4-yl)ethyl)-2-methyl-3-(4-bromonaphth-1-ylcarbonyl)-7-methoxyindole] gave a Ki [1] of over 1000 nM, a Ki [2] of 1.8 nM and an IC50 [3] of 1 nM. For the same compound, the IC50 [4] was 1000 nM.
`Cc1c(C(=O)NN2CCCCC2)nn(-c2ccc(Cl)cc2Cl)c1-c1ccc(Cl)cc1` [SR 141716A, reference compound] was tested, and the blocking effect (human B cells; wide concentration range, with CP 55940 (or Δ^9 -THC or WIN 55212-2) at 10^-9 M) was “no blocking effect was observed”.
